From patent publication US20110288116A1, “IAP INHIBITORS” (TETRALOGIC PHARMACEUITCAL CORPORATION, priority 2008, published 2011)

Molecular target: T1, cIAP-1 BIR-3 (Homo sapiens, UniProt Q13490)
T1 construct: "cIAP-1 BIR-3"
Test: Fluorescence polarization binding to cIAP-1 BIR-3 (competition with AbuRPF-K(5-Fam)-NH2)
Settings: cells marked (cIAP-1): cIAP-1 BIR-3; reported as range class
Protocol: The binding affinities of the compounds are reported as a Kd value. Briefly, various concentrations of test peptides were mixed with 5 nM of the fluorescently labeled peptide (i.e., a mutated N-terminal Smac peptide—AbuRPF-K(5-Fam)-NH2) and 40 nM of the BIR3 for 15 min at RT in […] of 0.1M Potassium Phosphate buffer, pH 7.5 containing […] bovine g-globulin. Following incubation, the polarization values (mP) were measured on a Victor2V (available from PerkinElmer Life Sciences) using a 485 nm excitation filter and a 520 nm emission filter. The reported Kd values are supplied as ranges (A=<0.1 μM, B=0.1 μM to C=>1 μM to 10 μM, D=>10 μM) and, unless otherwise indicated, are the Kd for XIAP BIR-3.

T1 sequence (Q13490 266-343 limits assumed): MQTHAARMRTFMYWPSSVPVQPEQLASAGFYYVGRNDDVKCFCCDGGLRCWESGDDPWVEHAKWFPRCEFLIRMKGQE

| Compound | Kd [nM] |
| --- | --- |
| CCN[C@@H](C)C(=O)N[C@@H](COC)C(=O)N1CC[C@@H](O)[C@H]1Cc1c(-c2ccc(F)cc2)[nH]c2ccccc12 [FFF] | > 100 |
| CN[C@@H](C)C(=O)N[C@@H](COC)C(=O)N1CC[C@@H](O)[C@H]1Cc1c(-c2ccc(F)cc2)[nH]c2ccccc12 [HHH] | > 100 |
| CN[C@H](C(=O)N[C@H](C(=O)N1CC[C@@H](O)[C@H]1Cc1c[nH]c2ccccc12)C1CC1)C1CC1 [QQ′] | > 100 |
| CCN[C@@H](C)C(=O)N[C@H](C(=O)N1CC[C@@H](O)[C@H]1Cc1c[nH]c2ccccc12)C1CC1 [SS′] | > 100 |
| CN[C@H](C(=O)N[C@H](C(=O)N1CC[C@@H](O)[C@H]1Cc1c[nH]c2ccccc12)C(C)C)C1CC1 [TT′] | > 100 |
| CCN[C@@H](C)C(=O)N[C@H](C(=O)N1CC[C@H](OC)[C@H]1Cc1c(Cl)[nH]c2cc(F)ccc12)C(C)C [U′] | > 100 |
| CN[C@@H](C)C(=O)N[C@H](C(=O)N1CC[C@@H](O)[C@H]1Cc1c[nH]c2ccccc12)C1CC1 [VV′] | < 100 |
| CC[C@H](NC)C(=O)N[C@H](C(=O)N1CCC[C@H]1Cc1cn(C)c2ncccc12)C(C)(C)C [V] | > 100 |
| CC[C@H](NC)C(=O)N[C@H](C(=O)N1CC[C@H](OC)[C@H]1Cc1c(Cl)[nH]c2cc(F)ccc12)C(C)C [V′] | > 100 |
| CN[C@@H](C)C(=O)N[C@H](C(=O)N1C[C@@H](O)C[C@H]1C[C@H]1CN(C(C)=O)c2ccccc21)[C@@H](C)OC [WWW] | > 100 |
| CCN[C@@H](C)C(=O)N[C@H](C(=O)N1CCC[C@H]1Cc1cn(C)c2ncccc12)C(C)(C)C [W] | < 100 |
| CN[C@@H](C)C(=O)N[C@H](C(=O)N1CC[C@H](O)[C@H]1Cc1c(Cl)[nH]c2cc(F)ccc12)C1CCCCC1 [W′] | < 100 |
| CN[C@@H](C)C(=O)N[C@H](C(=O)N1CC[C@@H](O)[C@H]1Cc1c[nH]c2ccccc12)C(C)C [XX′] | < 100 |
| CN[C@@H](C)C(=O)N[C@H](C(=O)N1CCC[C@H]1Cc1cn(C)c2ncccc12)C(C)(C)C [X] | < 100 |
| CN[C@@H](C)C(=O)N[C@H](C(=O)N1CC[C@H](O)[C@H]1Cc1c(Cl)[nH]c2cc(F)ccc12)C(C)(C)C [Y′] | < 100 |
| CN[C@@H](C)C(=O)N[C@H](C(=O)N1CC[C@H](O)[C@H]1Cc1c[nH]c2ncccc12)C(C)(C)C [Z, N-{1-[3-Hydroxy-2-(1H-pyrrolo[2,3-b]pyridin-3-ylmethyl)-pyrrolidine-1-carbonyl]-2,2-dimethyl-propyl}-2-methylamino-propionamide] | < 100 |
| CCc1ccc2c(c1)[C@H](C[C@@H]1C[C@H](O)CN1C(=O)[C@@H](NC(=O)[C@H](C)NC)[C@@H](C)OC)CN2C(C)=O [ZZZ] | < 100 |
| CCN[C@@H](C)C(=O)N[C@H](C(=O)N1CC[C@@H](O)[C@H]1Cc1c(-c2ccc(F)cc2)[nH]c2ccccc12)C(C)C [ZZ′] | < 100 |
| CC[C@H](NC)C(=O)N[C@H](C(=O)N1CC[C@H](O)[C@H]1Cc1c(Cl)[nH]c2cc(F)ccc12)C(C)C [Z′] | < 100 |
| AAAA | > 100 |
| EEEE | > 100 |

Further lines, results first:

| Kd [nM] | Compound |
| --- | --- |
| < 100 | CN[C@@H](C)C(=O)N[C@H](C(=O)N1CC[C@H](O)[C@H]1Cc1c(Cl)[nH]c2cc(F)ccc12)[C@@H](C)OC [CC′, N-{1-[2-(2-Chloro-6-fluoro-1H-indol-3-ylmethyl)-3-hydroxy-pyrrolidine-1-carbonyl]-2-methoxy-propyl}-2-methylamino-propionamide] |
| < 100 | CCc1ccc2c(c1)[C@@H](C[C@@H]1C[C@H](O)CN1C(=O)[C@@H](NC(=O)[C@H](C)NC)[C@@H](C)OC)CN2C(C)=O [DDDD] |
| < 100 | CC[C@H](NC)C(=O)N[C@H](C(=O)N1CC[C@@H](O)[C@H]1Cc1c(-c2ccc(F)cc2)[nH]c2ccccc12)[C@@H](C)O [DDD] |
| < 100 | CN[C@@H](C)C(=O)N[C@H](C(=O)N1CC[C@H](O)[C@H]1Cc1c[nH]c2ncccc12)C(C)C [DD] |
| < 100 | CCN[C@@H](C)C(=O)N[C@H](C(=O)N1CC[C@@H](O)[C@H]1Cc1c[nH]c2ccccc12)[C@@H](C)O [DD′] |
| < 100 | CN[C@@H](C)C(=O)N[C@H](C(=O)N1CC[C@@H](O)[C@H]1Cc1c(-c2ccc(F)cc2)[nH]c2ccccc12)[C@@H](C)O [EEE] |
| < 100 | CCN[C@@H](C)C(=O)N[C@H](C(=O)N1CC[C@H](O)[C@H]1Cc1c[nH]c2ncccc12)C(C)C [EE] |
| < 100 | CCN[C@@H](C)C(=O)N[C@H](C(=O)N1CC[C@@H](O)[C@H]1Cc1c[nH]c2ccccc12)[C@@H](C)OC [GG′] |
| < 100 | CCN[C@@H](C)C(=O)N[C@H](C(=O)N1CC[C@@H](O)[C@H]1Cc1c(-c2ccc(F)cc2)[nH]c2ccccc12)C1CCCCC1 [III] |
| < 100 | CCN[C@@H](C)C(=O)N[C@H](C(=O)N1CC[C@@H](O)[C@H]1Cc1c[nH]c2ccccc12)C1CCCCC1 [JJ′] |
| < 100 | CC[C@H](NC)C(=O)N[C@H](C(=O)N1CC[C@@H](O)[C@H]1Cc1c[nH]c2ccccc12)C1CCCCC1 [KK′] |
| < 100 | CCN[C@@H](C)C(=O)N[C@H](C(=O)N1CC[C@@H](O)[C@H]1Cc1c(-c2ccc(F)cc2)[nH]c2ccccc12)[C@@H](C)OC [LLL] |
| < 100 | CC[C@H](NC)C(=O)N[C@H](C(=O)N1CC[C@@H](O)[C@H]1Cc1c(-c2ccc(F)cc2)[nH]c2ccccc12)[C@@H](C)OC [MMM] |
| < 100 | CN[C@H](C(=O)N[C@H](C(=O)N1CC[C@@H](O)[C@H]1Cc1c[nH]c2ccccc12)C(C)(C)C)C1CC1 [MM′] |
| < 100 | CC[C@H](NC)C(=O)N[C@H](C(=O)N1CC[C@@H](O)[C@H]1Cc1c[nH]c2ccccc12)C(C)(C)C [NN′] |
| < 100 | CCN[C@@H](C)C(=O)N[C@H](C(=O)N1CC[C@@H](O)[C@H]1Cc1c[nH]c2ccccc12)C(C)(C)C [OO′] |
| < 100 | CN[C@@H](C)C(=O)N[C@H](C(=O)N1C[C@@H](O)C[C@H]1C(=O)c1c[nH]c2cc(F)ccc12)C(C)(C)C [PPP, N-{1-[2-(6-Fluoro-1H-indole-3-carbonyl)-4-hydroxy-pyrrolidine-1-carbonyl]-2,2-dimethyl-propyl}-2-methylamino-propionamide] |
| < 100 | CN[C@@H](C)C(=O)N[C@H](C(=O)N1CC[C@@H](O)[C@H]1Cc1c[nH]c2ccccc12)C(C)(C)C [PP′] |
| < 100 | CN[C@@H](C)C(=O)N[C@H](C(=O)N1C[C@@H](O)C[C@H]1C(=O)c1c[nH]c2cc(F)ccc12)C(C)C [QQQ] |
| < 100 | CC[C@H](NC)C(=O)N[C@H](C(=O)N1CC[C@@H](O)[C@H]1Cc1c[nH]c2ccccc12)C1CC1 [RR′] |
| < 100 | CN[C@@H](C)C(=O)N[C@H](C(=O)N1C[C@@H](O)C[C@H]1C[C@@H]1CN(C(C)=O)c2ccccc21)C1CCCCC1 [TTT] |
| < 100 | CC[C@H](NC)C(=O)N[C@H](C(=O)N1CC[C@@H](O)[C@H]1Cc1c[nH]c2ccccc12)C(C)C [UU′] |
